For assay [1], the target named is T1, Cyclooxygenase (Rattus norvegicus, UniProt P35355+Q63921).
T1 sequence (P35355 whole entry): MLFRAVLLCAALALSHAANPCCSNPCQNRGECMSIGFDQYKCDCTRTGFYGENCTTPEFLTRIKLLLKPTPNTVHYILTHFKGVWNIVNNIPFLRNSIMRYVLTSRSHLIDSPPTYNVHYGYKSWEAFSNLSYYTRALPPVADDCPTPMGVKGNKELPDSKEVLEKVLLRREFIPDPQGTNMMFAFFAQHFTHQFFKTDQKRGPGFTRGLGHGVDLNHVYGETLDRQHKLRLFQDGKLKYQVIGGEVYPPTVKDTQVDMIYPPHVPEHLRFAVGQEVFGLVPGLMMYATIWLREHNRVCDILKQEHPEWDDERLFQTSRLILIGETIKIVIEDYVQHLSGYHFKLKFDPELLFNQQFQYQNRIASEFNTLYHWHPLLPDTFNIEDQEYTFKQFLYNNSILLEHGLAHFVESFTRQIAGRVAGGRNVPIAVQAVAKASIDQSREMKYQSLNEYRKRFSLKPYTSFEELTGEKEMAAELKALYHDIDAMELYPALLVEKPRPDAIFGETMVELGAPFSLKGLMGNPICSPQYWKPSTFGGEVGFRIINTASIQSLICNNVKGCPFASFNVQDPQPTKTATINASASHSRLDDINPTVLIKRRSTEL
T1 sequence (Q63921 whole entry): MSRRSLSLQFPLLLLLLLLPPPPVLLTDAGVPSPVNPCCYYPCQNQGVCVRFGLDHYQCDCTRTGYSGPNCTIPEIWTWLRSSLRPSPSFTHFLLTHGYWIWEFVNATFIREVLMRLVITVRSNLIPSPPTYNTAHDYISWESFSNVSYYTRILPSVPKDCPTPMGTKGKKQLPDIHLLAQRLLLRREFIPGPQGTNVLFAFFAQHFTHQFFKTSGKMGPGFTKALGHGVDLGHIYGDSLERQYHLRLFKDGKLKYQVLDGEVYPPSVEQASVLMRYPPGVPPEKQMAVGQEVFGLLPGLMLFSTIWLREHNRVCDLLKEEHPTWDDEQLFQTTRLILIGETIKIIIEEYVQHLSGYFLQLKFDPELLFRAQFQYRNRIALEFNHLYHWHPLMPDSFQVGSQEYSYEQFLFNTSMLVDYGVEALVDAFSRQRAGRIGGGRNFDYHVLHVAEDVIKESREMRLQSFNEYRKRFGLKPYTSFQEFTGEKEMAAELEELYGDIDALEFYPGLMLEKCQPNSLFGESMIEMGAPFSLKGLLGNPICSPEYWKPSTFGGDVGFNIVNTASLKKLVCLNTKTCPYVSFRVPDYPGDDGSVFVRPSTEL
In words: Inhibition of cyclooxygenase in rat RBL1 cells. Particulars: rbl-1. Type of assay: cell-based.

Assay [2] deals with T2, Polyunsaturated fatty acid 5-lipoxygenase (Rattus norvegicus, UniProt P12527).
T2 sequence (P12527 whole entry): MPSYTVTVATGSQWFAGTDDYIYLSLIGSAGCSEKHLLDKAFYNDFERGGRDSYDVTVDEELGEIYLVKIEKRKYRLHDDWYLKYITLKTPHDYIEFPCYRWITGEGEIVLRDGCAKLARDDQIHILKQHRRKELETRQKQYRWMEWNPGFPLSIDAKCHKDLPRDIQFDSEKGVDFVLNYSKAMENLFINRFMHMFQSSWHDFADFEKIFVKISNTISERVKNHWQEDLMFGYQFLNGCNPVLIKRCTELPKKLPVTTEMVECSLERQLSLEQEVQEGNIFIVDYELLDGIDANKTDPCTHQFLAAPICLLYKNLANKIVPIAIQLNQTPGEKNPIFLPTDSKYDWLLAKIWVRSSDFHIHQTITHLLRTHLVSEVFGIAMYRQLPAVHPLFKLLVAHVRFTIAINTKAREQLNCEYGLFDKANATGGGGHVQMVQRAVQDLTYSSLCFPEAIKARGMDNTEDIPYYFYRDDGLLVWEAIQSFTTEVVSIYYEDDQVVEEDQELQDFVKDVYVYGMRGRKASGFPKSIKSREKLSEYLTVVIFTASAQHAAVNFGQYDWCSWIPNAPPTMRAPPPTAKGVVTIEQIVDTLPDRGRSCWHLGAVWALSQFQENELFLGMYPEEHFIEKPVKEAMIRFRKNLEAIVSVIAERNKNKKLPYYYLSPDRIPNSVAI
Put plainly: Inhibition of 5-lipoxygenase in rat RBL1 cells. The format is cell-based, RBL-1.

On to `COc1ccc(O)c(C(=O)/C=C/c2ccccc2)c1`, for which the half-maximal inhibitory concentration (IC50) in assay [1] and in assay [2] was 41 µM throughout.
`COc1ccccc1/C=C/C(=O)c1ccccc1`: the IC50 in assay [1] and in assay [2] was 27 µM throughout.
Turning to `O=C(/C=C/c1ccc([N+](=O)[O-])cc1)c1ccccc1`, the IC50 in assay [1] and in assay [2] was 23 µM in each case.
Consider `O=C(/C=C/c1ccccc1)c1cc(O)ccc1O`, for which the IC50 in assay [1] and in assay [2] was 64 µM throughout.
For `COc1cc(/C=C/C(=O)c2ccc(Cl)cc2)ccc1O`, the half-inhibitory concentration (IC50) in assay [1] is 8.9 µM.
The same measure, in the same setting: under `O=C(/C=C/c1ccc(O)c(O)c1)c1cccc(O)c1` stands 0.0042 µM.
As to `O=C(/C=C/c1ccc(O)c(O)c1)c1ccccc1`, the IC50 in assay [1] came to 0.043 µM.
Same read-out and setting: under `COc1ccc(C(=O)/C=C/c2ccc(O)c(OC)c2)cc1` stands 12 µM.
In the case of `COc1ccc(/C=C/C(=O)c2ccccc2)c(OC)c1`, the IC50 in assay [1] and in assay [2] was 10 µM each time.
In the case of `COc1ccc(OC)c(C(=O)/C=C/c2ccccc2)c1`, the IC50 in assay [1] and in assay [2] was 7.8 µM throughout.
Regarding `O=C(/C=C/c1ccccc1C(F)(F)F)c1ccccc1`, the IC50 in assay [1] and in assay [2] was 58 µM throughout.
Regarding `Cc1ccc(O)c(C(=O)/C=C/c2ccccc2)c1`, the half-inhibitory concentration (IC50) in assay [1] and in assay [2] was 39 µM in each case.
For `COc1ccc(C)cc1C(=O)/C=C/c1ccccc1`, the IC50 in assay [1] and in assay [2] was 24 µM in each case.
`CCOc1ccc(OC)c(C(=O)/C=C/c2ccccc2)c1`: the IC50 in assay [1] and in assay [2] was 38 µM each time.
Take `COc1ccc(OC(C)C)cc1C(=O)/C=C/c1ccccc1`: the IC50 in assay [1] and in assay [2] was 14 µM throughout.
As to `CCOc1ccc(OC)cc1C(=O)/C=C/c1ccccc1`, the IC50 in assay [1] and in assay [2] was 27 µM each time.
In the case of `CCOc1ccc(OCC)c(C(=O)/C=C/c2ccccc2)c1`, the IC50 in assay [1] and in assay [2] was 2.4 µM each time.
For `Cc1ccc(C)c(C(=O)/C=C/c2ccccc2)c1`, the IC50 in assay [1] and in assay [2] was 16 µM in each case.
Take `CCOc1ccc(O)c(C(=O)/C=C/c2ccccc2)c1`: the IC50 in assay [1] and in assay [2] was 5.3 µM each time.
On to `CC(C)c1ccc(O)c(C(=O)/C=C/c2ccccc2)c1`, for which the IC50 in assay [1] and in assay [2] was 4 µM in each case.
In the case of `CC(C)Oc1ccc(O)c(C(=O)/C=C/c2ccccc2)c1`, the IC50 in assay [1] and in assay [2] was 11 µM each time.
`CCCCOc1ccc(O)c(C(=O)/C=C/c2ccccc2)c1`: the half-maximal inhibitory concentration (IC50) in assay [1] and in assay [2] was 1 µM throughout.
Consider `Cc1ccc(/C=C/C(=O)c2ccccc2)c(C)c1`, for which the concentration for half-maximal inhibition (IC50) in assay [1] and in assay [2] was 17 µM in each case.
Turning to `COc1ccc(OC)c(/C=C/C(=O)c2ccccc2)c1`, the IC50 in assay [1] and in assay [2] was 7.8 µM throughout.
For `COc1ccc(O)c(/C=C/C(=O)c2ccccc2)c1`, the IC50 in assay [1] and in assay [2] was 41 µM each time.
Consider `CC(C)Oc1ccc(/C=C/C(=O)c2ccccc2)cc1`, for which the IC50 in assay [1] and in assay [2] was 41 µM throughout.
Consider `CN(C)c1cccc(/C=C/C(=O)c2ccccc2)c1`, for which the IC50 in assay [1] and in assay [2] was 9.8 µM throughout.
On to `Cc1cccc(/C=C/C(=O)c2ccccc2)c1`, for which the IC50 in assay [1] and in assay [2] was 27 µM each time.
`COc1cccc(OC)c1/C=C/C(=O)c1ccccc1`: the IC50 in assay [1] and in assay [2] was 370 µM each time.
Regarding `COc1cccc(/C=C/C(=O)c2ccccc2)c1`, the IC50 in assay [1] and in assay [2] was 6.5 µM throughout.
`COc1ccc(/C=C/C(=O)c2ccccc2)cc1OC`: the IC50 in assay [1] and in assay [2] was 18 µM throughout.
For the compound `O=C(/C=C/c1ccc(O)c(O)c1)c1ccccc1O`, the 50% inhibitory concentration (IC50) in assay [1] worked out at 0.023 µM.
For `Cc1ccc(/C=C/C(=O)c2ccccc2)cc1`, the IC50 in assay [1] and in assay [2] was 76 µM throughout.
As to `CN(C)c1ccc(/C=C/C(=O)c2ccccc2)cc1`, the IC50 in assay [1] and in assay [2] was 4.7 µM in each case.
For the compound `COc1cc(/C=C/C(=O)c2ccccc2)ccc1O`, the IC50 in assay [1] and in assay [2] was 9 µM each time.
Turning to `COc1ccc(/C=C/C(=O)c2ccccc2)c(O)c1`, the IC50 in assay [1] and in assay [2] was 15 µM in each case.
As to `O=C(/C=C/c1ccccc1Cl)c1ccccc1`, the IC50 in assay [1] and in assay [2] was 92 µM in each case.
As to `Cc1cc(C)c(/C=C/C(=O)c2ccccc2)c(C)c1`, the IC50 in assay [1] and in assay [2] was 400 µM in each case.
With `COc1cc(/C=C/C(=O)c2ccccc2)cc(OC)c1OC`, the IC50 in assay [1] and in assay [2] was 16 µM each time.
Compound `O=C(/C=C/c1ccc(O)c(O)c1)c1c(O)cc(O)cc1O` [3,4,2',4',6'-PENTAHYDROXYCHALCONE] showed an IC50 in assay [1] of 0.14 µM.
As to `O=C(/C=C/c1ccc(Cl)cc1)c1ccccc1` [4-CHLORO CHALCONE], the IC50 in assay [1] and in assay [2] was 85 µM in each case.
As for `COc1ccc(/C=C/C(=O)c2ccccc2)cc1` [4-METHOXY CHALCONE], the IC50 in assay [1] and in assay [2] was 20 µM in each case.
For the compound `O=C(/C=C/c1ccc(O)c(O)c1)c1ccc(O)cc1O` [BUTEIN], the half-inhibitory concentration (IC50) in assay [1] is 0.0046 µM.
With `O=C(/C=C/c1ccccc1)c1ccccc1` [CHALCONE], the IC50 in assay [1] and in assay [2] was 43 µM in each case.
Take `O=C(/C=C/c1ccc(O)cc1)c1ccc(O)cc1O` [ISOLIQUIRITIGENIN]: in assay [1], the IC50 came out at 35 µM.

The term IC50 denotes the concentration that inhibits the measured activity by half. Low readings indicate greater potency in that assay, high ones weaker potency in that assay.

Source of the values: ChEMBL document CHEMBL2429716, “Molecular modeling studies of substituted 3,4-dihydroxychalcone derivatives as 5-lipoxygenase and cyclooxygenase inhibitors” (Med Chem Res, 2013).
